Source: patent US20140193455A1, “PHARMACEUTICAL COMPOSITION FOR PREVENTION OR TREATMENT OF STEROID-INDUCED DIABETES AND HEALTH FUNCTIONAL FOOD” (priority 2013, published 2014)

Test system: INS-1 cells
Assay: Cell counting analysis (trypan blue) of living INS-1 cells
Assay type: cell-based, rat
Conditions: for decrease in INS-1 cell survival compared to the control: FIG. 4; for decrease in survival of INS-1 cells compared to control: treated alone
Method: The rat insulin-secreting cell line INS-1 was maintained in RPMI-1640 medium containing 10% heat-inactivated FBS (fetal bovine serum), 100 units/ml of penicillin and 100 μg/ml of streptomycin at 37° C. under the conditions of 95% humidity and 5% CO2.
One day before treatment with reagent or CLCE, INS-1 cells were cultured in a 24-well plate at a concentration of 1×10^5 cells/well in a volume of 500 μL. The INS-1 cells were treated with the indicated concentrations of reagent (Dex, LY294002, IL-1β, STZ, TG or TN) and/or CLCE for the indicated time. At each point of time, the cells were stained with trypan blue dye, and the living INS-1 cells were counted under a microscope. The cell counting was repeated three times. Data were expressed as the mean of three independent experiments.

Compound: CN(N=O)C(=O)N[C@H]1C(O)O[C@H](CO)[C@@H](O)[C@@H]1O (mixture of isomers) [STZ, streptozotocin]
- decrease in INS-1 cell survival compared to the control (treated alone for 24 hours): ~82%

Compound: C[C@@H]1C[C@H]2[C@@H]3CCC4=CC(=O)C=C[C@]4(C)[C@@]3(F)[C@@H](O)C[C@]2(C)[C@@]1(O)C(=O)CO [Dex, dexamethasone]
- decrease in survival rate of INS-1 cells (treated alone for 24 hours, FIG. 1A): about 50%
- decrease in survival of INS-1 cells compared to control (FIG. 3): about 55%

Compound: O=c1cc(N2CCOCC2)oc2c(-c3ccccc3)cccc12 [LY294002]
- degree of the decrease in survival of INS-1 cells (combination of Dex and LY294002, FIG. 3): 75%
- decrease in survival of INS-1 cells compared to control (FIG. 3): about 24%

Compound: C/C=C(/C)C(=O)O[C@H]1C(C)=C2[C@H]([C@@H]1OC(=O)CCCCCCC)[C@@](C)(OC(C)=O)C[C@H](OC(=O)CCC)[C@@]1(O)[C@H]2OC(=O)[C@@]1(C)O [TG, thapsigargin]
- decrease in INS-1 cell survival compared to the control (treated alone for 24 hours): ~88%

Compound: interleukin-1β [IL-1β]
- decrease in INS-1 cell survival compared to the control (treated alone for 24 hours): about 45%

Compound: tunicamycin [TN]
- decrease in INS-1 cell survival compared to the control (treated alone for 24 hours): ~50%
